Data: ChEMBL document CHEMBL1132876, “Examination of N-hydroxylation as a prerequisite mechanism of nitric oxide synthase inactivation” (Bioorg Med Chem Lett, 2000)

Key:
[1] = molecular target: T1, Nitric oxide synthase, inducible (Mus musculus, UniProt P29477); test: Compound was tested for competitive antagonist of Nitric oxide synthase; assay type: functional
T1 sequence (P29477 whole entry): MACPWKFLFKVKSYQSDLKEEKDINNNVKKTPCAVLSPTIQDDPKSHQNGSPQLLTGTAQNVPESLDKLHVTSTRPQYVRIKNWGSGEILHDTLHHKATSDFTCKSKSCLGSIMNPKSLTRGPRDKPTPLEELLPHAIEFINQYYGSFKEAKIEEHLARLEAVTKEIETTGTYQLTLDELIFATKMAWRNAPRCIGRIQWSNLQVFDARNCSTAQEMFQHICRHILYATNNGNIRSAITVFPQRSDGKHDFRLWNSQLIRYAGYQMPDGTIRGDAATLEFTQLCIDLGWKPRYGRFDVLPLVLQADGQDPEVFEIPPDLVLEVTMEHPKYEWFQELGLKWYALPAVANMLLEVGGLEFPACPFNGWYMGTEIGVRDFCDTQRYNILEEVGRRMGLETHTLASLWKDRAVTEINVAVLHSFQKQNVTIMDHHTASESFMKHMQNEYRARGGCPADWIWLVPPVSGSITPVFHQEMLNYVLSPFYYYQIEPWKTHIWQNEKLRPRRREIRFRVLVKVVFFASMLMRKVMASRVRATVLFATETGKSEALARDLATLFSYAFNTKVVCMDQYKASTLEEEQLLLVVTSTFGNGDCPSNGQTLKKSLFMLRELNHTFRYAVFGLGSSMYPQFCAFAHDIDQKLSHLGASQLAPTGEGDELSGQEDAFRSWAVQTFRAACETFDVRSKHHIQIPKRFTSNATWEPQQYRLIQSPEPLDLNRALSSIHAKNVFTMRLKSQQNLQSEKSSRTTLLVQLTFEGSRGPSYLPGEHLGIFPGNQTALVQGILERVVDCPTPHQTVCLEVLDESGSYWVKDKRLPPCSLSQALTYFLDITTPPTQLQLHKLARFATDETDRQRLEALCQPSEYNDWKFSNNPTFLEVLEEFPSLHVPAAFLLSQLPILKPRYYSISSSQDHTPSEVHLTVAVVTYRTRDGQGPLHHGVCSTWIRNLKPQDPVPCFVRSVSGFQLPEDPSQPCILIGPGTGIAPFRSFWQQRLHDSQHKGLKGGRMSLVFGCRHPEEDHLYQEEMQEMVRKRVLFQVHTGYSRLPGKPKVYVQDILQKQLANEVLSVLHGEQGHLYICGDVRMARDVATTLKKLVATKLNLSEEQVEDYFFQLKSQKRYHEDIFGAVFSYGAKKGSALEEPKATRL

[2] = molecular target: T2, Nitric oxide synthase, inducible (Mus musculus) (UniProt P29477)
T2 sequence (whole entry): T1 sequence (P29477 whole entry)
Description: Pseudo-first order inactivation rate constant against nitric oxide synthase was determined

[3] = molecular target: T1, Nitric oxide synthase, inducible; test: The compound was tested for competitive antagonist of Nitric oxide synthase; assay type: functional

Ki [1] [µM]	kinact [2] [min⁻¹]	Ki [3] [µM]	Compound
1.42	0.16		CC(=N)NCCC[C@H](N)C(=O)O [L-NIO]
		41.1	CC(=NO)NCCCC[C@H](N)C(=O)O
		37.7	CC(=NO)NCCC[C@H](N)C(=O)O
	0.35	2.16	CC(=N)NCCCC[C@H](N)C(=O)O [L-NIL]
